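Dose response: 5 concentrations. Exposure: 48 h. Format: 96-well plates. Endpoint: linear interpolation; highest concentration if not reached. The concentration for 50% growth inhibition is given as GI50. The concentration for full growth arrest is given as TGI.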
What was measured:
Assay in all cases: NCI tumour cell line growth inhibition, 48 h
K-562 leukemia = system: K-562 leukemia
M14 melanoma = system: M14 melanoma
MCF7 breast = system: MCF7 breast
OVCAR-5 ovarian = system: OVCAR-5 ovarian
OVCAR-8 ovarian = system: OVCAR-8 ovarian
SNB-75 CNS = system: SNB-75 CNS
SW-620 colon = system: SW-620 colon
UO-31 renal = system: UO-31 renal
EKVX NSCLC = system: EKVX NSCLC
HL-60(TB) leukemia = system: HL-60(TB) leukemia

| SMILES | GI50 (K-562 leukemia) [µM] | TGI (K-562 leukemia) [µM] | GI50 (M14 melanoma) [µM] | TGI (M14 melanoma) [µM] | GI50 (MCF7 breast) [µM] | TGI (MCF7 breast) [µM] | GI50 (OVCAR-5 ovarian) [µM] | TGI (OVCAR-5 ovarian) [µM] | GI50 (OVCAR-8 ovarian) [µM] | TGI (OVCAR-8 ovarian) [µM] | GI50 (SNB-75 CNS) [µM] | TGI (SNB-75 CNS) [µM] | GI50 (SW-620 colon) [µM] | TGI (SW-620 colon) [µM] | GI50 (UO-31 renal) [µM] | TGI (UO-31 renal) [µM] | TGI (EKVX NSCLC) [µM] | TGI (HL-60(TB) leukemia) [µM] | GI50 (HL-60(TB) leukemia) [µM] | GI50 (EKVX NSCLC) [µM] |
| --- | --- | --- | --- | --- | --- | --- | --- | --- | --- | --- | --- | --- | --- | --- | --- | --- | --- | --- | --- | --- |
| CC(C)C[C@H](NC(=O)[C@H](Cc1ccccc1)n1ccc(N2CCCCC2)cc1=O)B(O)O | 1.08 | > 100 | 0.356 | 3.88 | 0.392 | > 100 | 3.15 | 97.3 | 3.64 | > 100 | 0.461 | 3.82 | 0.376 | > 100 | 0.981 | 15.4 |  |  |  |  |
| COc1cccc(N2C(=O)c3c(c4[nH]c5ccccc5c4c4ccc(C(C)(C)C)cc34)C2=O)c1 |  | > 100 |  | > 100 |  |  |  | > 100 |  | > 100 |  | > 100 |  | > 100 |  | > 100 | > 100 |  |  |  |
| O=C(Nc1ccc(Cl)c(C(F)(F)F)c1)C(=O)C(C(=O)/C=C/c1ccccc1)C1OC(=O)c2ccccc21 (configuration not stated) |  | > 100 |  | > 100 |  |  |  | > 100 |  | > 100 |  | > 100 |  | > 100 |  | > 100 | > 100 | > 100 |  |  |
| C/C(=N\N=C(N)N)C(CN(CC(C)C)CC(C)C)C(=O)Nc1ccc(C)cc1C (configuration not stated) |  | > 100 |  | > 100 |  |  |  | > 100 |  | > 100 |  | > 100 |  | > 100 |  | > 100 | > 100 | > 100 |  |  |
| COC(=O)C1(C)C=C(Nc2ccccc2)C(=O)N1c1ccccc1 (configuration not stated) |  | > 100 |  | > 100 |  |  |  | > 100 |  | > 100 |  |  |  | > 100 |  | > 100 | > 100 | > 100 |  |  |
| O=C(O)c1ccc(NC(=O)C2C(=O)C(=O)N(c3ccc(C(=O)O)cc3)C2=O)cc1 (configuration not stated) |  | > 100 |  |  |  |  |  | > 100 |  | > 100 |  | > 100 |  | > 100 |  | > 100 | > 100 | > 100 |  |  |
| O=C(Nc1ccc(-c2nc3cc4ccccc4cc3[nH]2)cc1)c1cccc(Br)c1 |  |  | 7.59 | 24.8 | 1.97 | 10.4 | 22.6 | 68.3 | 3.43 | 18.9 | 12.4 | 26.4 | 3.09 | 12.8 | 17.6 | 36.1 |  | 48.4 | 16.6 |  |
| O=[N+]([O-])c1ccc(N2CCN(Cc3ccccc3)CC2)c2c1no[n+]2[O-] | 1.05 | 2.98 | 1.8 | 3.52 | 0.803 | 2.44 | 4.15 | 8.77 | 1.59 | 5.25 | 0.954 | 2.26 | 1.2 | 3.05 | 1.28 | 2.59 |  | 2.99 | 0.473 |  |
| COc1nc2c(OC)cccc2c(OC)c1C=O |  | > 100 |  | > 100 |  |  |  |  |  | > 100 |  | > 100 |  | > 100 |  | > 100 | > 100 | > 100 |  |  |
| O=C1C2C(C(=O)N1O)N(Cc1ccccc1)C(=O)N2Cc1ccccc1 (configuration not stated) |  | > 100 |  | > 100 |  |  |  | > 100 |  | > 100 |  | > 100 |  | > 100 |  | > 100 | > 100 | > 100 |  |  |
| Cc1ccc(Nc2nc(NCCO)c3ccccc3n2)cc1C | 3.19 | 13 |  |  | 1.66 | 16.9 | 4.29 | 16.4 | 5.44 | 25.9 | 8.14 | 20.9 | 4.03 | 15.7 | 5.01 | 19 |  | 31 | 11 |  |
| C=CC1(C)CCC(C(C)C(=O)C(C=C(C)C)OC(C)=O)C12C(=O)Oc1ccccc1C2=O (configuration not stated) |  | > 100 |  | > 100 |  |  |  |  |  | > 100 |  | > 100 |  | > 100 |  | > 100 | > 100 | 64.6 |  |  |
| CC(C(=O)N1C(=O)N(C(=O)C(C)C(O)c2ccccc2)C(c2ccccc2)C1c1ccccc1)C(O)c1ccccc1 (configuration not stated) |  | 41.6 |  | 33.4 |  | > 100 |  |  |  | > 100 |  | 54.8 |  | > 100 |  | 41.1 |  | 6.79 |  |  |
| Oc1ccc(C(c2ccccc2)(c2ccccc2)c2ccccc2)cc1 | 24.9 | 61.2 | 15.6 | 30.3 | 10.3 | 34.3 | 14.4 | 28.1 | 18.2 | 35.9 |  |  | 22.4 | 66.1 | 11.8 | 26.9 | 29.3 |  |  | 15.4 |
| CC(Cn1c2c3ccccc3ccc2c2oc(=O)c3ccccc3c21)N(C)C (configuration not stated) |  | > 100 |  | > 100 |  |  |  | > 100 |  | > 100 |  | > 100 |  | > 100 |  | > 100 | > 100 | > 100 |  |  |
| CC1=CC=NN2C(=O)[C@H](C)C2C1 (some centres not stated) |  | > 100 |  | > 100 |  |  |  | > 100 |  | > 100 |  | > 100 |  | > 100 |  | > 100 | > 100 | > 100 |  |  |
| COc1ccc(OCC(=O)O)c2c1CCC(C(C)C)C2=O (configuration not stated) |  | > 100 |  | > 100 |  |  |  | > 100 |  | > 100 |  |  |  | > 100 |  | > 100 | > 100 | > 100 |  |  |
| CC(C)C(C(=O)O)N(CC1(O)OCC(O)C(O)C1O)N=O (configuration not stated) |  | > 100 |  | > 100 |  |  |  | > 100 |  | > 100 |  | > 100 |  | > 100 |  | > 100 | > 100 | > 100 |  |  |
| CCCCCCCCCCCCCS(=O)(=O)O |  |  |  | > 100 |  |  |  | > 100 |  | > 100 |  | > 100 |  | > 100 |  | > 100 | > 100 | > 100 |  |  |
| CN/N=C(/Cc1occc(=O)c1O)C(=O)Nc1ccc(C)c(C)c1 |  | > 100 |  | > 100 |  |  |  | > 100 |  | > 100 |  |  |  | > 100 |  | > 100 | > 100 | > 100 |  |  |
| CCOC(=N)CC(=O)Nc1ccc(Cl)cc1 |  | > 100 |  | > 100 |  |  |  | > 100 |  | > 100 |  | > 100 |  | > 100 |  | > 100 | > 100 | > 100 |  |  |
